In experiment [1] the test system is phenyl-para-quinone induced writhing. In words: phenyl-para-quinone writhing assay in mice (analgesia). It counts as in vivo. The following applies: for ED50: Mus musculus, read-out: Analgesic Activity ED50 (dose at which 50% of the phenyl-para-quinone induced writhing is inhibited). Background: Writhing tests count abdominal constrictions after an irritant is injected.

The test system of experiment [2] is apomorphine-induced climbing. Kind of experiment: climbing mice assay (block of apomorphine-induced climbing), antipsychotic activity. Type of experiment: in vivo, mice (CK-1 male). To be noted: Mus musculus, ip; for ED50: read-out: Antipsychotic Activity ED50 value (estimated dose for 50% decrease in climbing scores).
Experiment [3] concerns spontaneous hypertensive rat. In words: antihypertensive activity in the spontaneous hypertensive rat, indirect tail cuff method. Type of experiment: in vivo. The following applies: 50 mg/kg of body wt, oral, 3 days, measured on third day. On the procedure: According to this procedure, the test compound is administered orally to a group of 5 rats for 3 days in relation to a control group of the same number. The decrease in blood pressure is measured on the third day of administration.

Setting [4] is: mice, 10 mg/kg of body wt, intraperitoneal, 30 minutes prior to apomorphine 1.5 mg/kg s.c., read-out: Antipsychotic Activity (% decrease in climbing score).
Where [5] appears, read: mice, at 20 mg/kg, subcutaneous.
Where [6] appears, read: mice, intraperitoneal, 30 minutes prior to apomorphine 1.5 mg/kg s.c., linear regression.

The structures appear in SMILES notation. Where a name gives a salt, the structure may show the parent alone. Read-outs that look alike come from different tables or passages of the source.

For orientation: ED50 means the dose that gives a 50% effect, or the effect in half of the subjects. As for `Fc1ccc2c(CCCN3CCCCCC3)noc2c1.O=C(O)C(=O)O` [1-[3-(6-Fluoro-1,2-benzisoxazol-3-yl)propyl]-2,3,4,5,6,7-hexahydroazepine oxalate], in experiment [1] (sc, mice, subcutaneous), the ED50 was determined as 1.3 mg/kg. Moreover, the inhibition in vivo at 10 mg/kg in experiment [2] (setting [4]) turned out to be 27%. On to `CC(O)C1(c2ccccc2)CCN(CCCc2noc3cc(F)ccc23)CC1` (centres unmarked) [1-[3-(6-Fluoro-1,2-benzisoxazol-3-yl)propyl]-4-(1-hydroxyethyl)-4-phenylpiperidine hydrochloride], for which the inhibition in vivo at 10 mg/kg in experiment [2] (read-out: Antipsychotic Activity (% decrease in climbing score)) is 41%. For the molecule `Cl.Fc1ccc2c(CCCN3CCC(Oc4ccc(Cl)c(Cl)c4)CC3)noc2c1` [1-[3-(6-Fluoro-1,2-benzisoxazol-3-yl)propyl]-4-(3,4-dichlorophenoxy)piperidine hydrochloride], the “percent decrease in writhing at a given dose” value (“percent decrease in writhing” for short) in experiment [1] (setting [5]) stood at 49%. For `Cl.Fc1ccc2c(CCCN3CCC(CCCc4ccccc4)CC3)noc2c1` [1-[3-(6-Fluoro-1,2-benzisoxazol-3-yl)propyl]-4-(3-phenylpropyl)piperidine hydrochloride], the “Blood Pressure Decrease (decrease in mean arterial blood pressure)” value (“Blood Pressure Decrease” below) in experiment [3] is 40 mm/mercury. Besides, the inhibition in vivo at 10 mg/kg in experiment [2] (setting [4]) amounted to 25%. As for `Cl.O=C(c1ccc(F)cc1)C1CCN(CCCc2noc3cc(F)ccc23)CC1` [1-[3-(6-Fluoro-1,2-benzisoxazol-3-yl)propyl]-4-(4-fluorobenzoyl)piperidine hydrochloride], the ED50 in experiment [1] (sc, mice, subcutaneous) was 0.8 mg/kg. In experiment [2] (mice, 3 mg/kg of body wt, intraperitoneal, 30 minutes prior to apomorphine 1.5 mg/kg s.c., read-out: Antipsychotic Activity (% decrease in climbing score)), the inhibition in vivo at 3 mg/kg was 91%. `Cl.Fc1ccc2c(CCCN3CCC(Oc4ccc(C(F)(F)F)cc4)CC3)noc2c1` [1-[3-(6-Fluoro-1,2-benzisoxazol-3-yl)propyl]-4-(4-trifluoromethylphenoxy)piperidine hydrochloride]: in experiment [3], the “Blood Pressure Decrease” value was 35 mm/mercury. Take `OC1CCN(CCCc2noc3cc(F)ccc23)CC1` [1-[3-(6-Fluoro-1,2-benzisoxazol-3-yl)propyl]-4-hydroxypiperidine]: the “percent decrease in writhing” value in experiment [1] (setting [5]) is 43%. Further, in experiment [2] (setting [6]), the ED50 is 10.4 mg/kg. With `Cl.Fc1ccc2c(CCCN3CCC(c4ccccc4)CC3)noc2c1` [1-[3-(6-Fluoro-1,2-benzisoxazol-3-yl)propyl]-4-phenylpiperidine hydrochloride], the ED50 in experiment [1] (sc, mice, subcutaneous) amounted to 1 mg/kg. Also, in experiment [2] (setting [4]), the inhibition in vivo at 10 mg/kg amounted to 35%. For `Cl.Fc1ccc2c(CCCN3CCC(Sc4ccccc4)CC3)noc2c1` [1-[3-(6-Fluoro-1,2-benzisoxazol-3-yl)propyl]-4-phenylthiopiperidine hydrochloride] the same measures were 4.4 mg/kg and 27%. Regarding `Fc1ccc2c(CCCN3CCOCC3)noc2c1` [1-[3-(6-Fluoro-1,2-benzisoxazol-3-yl)propyl]morpholine oxalate], the 50% effective dose (ED50) in experiment [1] (sc, mice, subcutaneous) was 2.2 mg/kg. Turning to `Cl.Fc1ccc2c(CCCN3CCCCC3)noc2c1` [1-[3-(6-Fluoro-1,2-benzisoxazol-3-yl)propyl]piperidine hydrochloride], the ED50 in experiment [1] (sc, mice, subcutaneous) came out at 0.6 mg/kg. Moreover, the “Blood Pressure Decrease” value in experiment [3] was 30 mm/mercury.

In the case of `Fc1ccc2c(CCCN3CCCC3)noc2c1.O=C(O)C(=O)O` [1-[3-(6-Fluoro-1,2-benzisoxazol-3-yl)propyl]pyrrolidine oxalate], the ED50 in experiment [1] (sc, mice, subcutaneous) is 1.2 mg/kg. As to `Fc1ccc2c(CCCN3CCc4ccccc4C3)noc2c1` [2-[3-(6-Fluoro-1,2-benzisoxazol-3-yl)propyl]-1,2,3,4-tetrahydroisoquinolinehydrochloride], in experiment [1] (setting [5]), the “percent decrease in writhing” value was 69%.

For the molecule `Fc1ccc2c(CCCN3CCC(Oc4ccc(Cl)cc4)CC3)noc2c1` [4-(4-Chlorophenoxy)-1-[3-(6-fluoro-1,2-benzisoxazol-3-yl)propyl]-piperidinehydrochloride], the “Blood Pressure Decrease” value in experiment [3] worked out at 39 mm/mercury.

As to `CC(=O)C1(c2ccccc2)CCN(CCCc2noc3cc(F)ccc23)CC1.Cl` [4-Acetyl-1-[3-(6-fluoro-1,2-benzisoxazol-3-yl)propyl]-4-phenylpiperidine hydrochloride], in experiment [1] (mouse, in vivo, sc, 20 mg/kg), the “percent decrease in writhing” value turned out to be 46%.

Turning to `O=C(NC1CCN(CCCc2noc3cc(F)ccc23)CC1)c1ccccc1` [4-Benzamido-1-[3-(6-fluoro-1,2-benzisoxazol-3-yl)propyl]-piperidine], the 50% effective dose (ED50) in experiment [1] (sc, mice, subcutaneous) came out at 0.6 mg/kg. In addition, the “Blood Pressure Decrease” value in experiment [3] was 44 mm/mercury. In addition, the inhibition in vivo at 10 mg/kg in experiment [2] (setting [4]) turned out to be 49%. On to `Cl.Fc1ccc2c(CCCN3CCC(Cc4ccccc4)CC3)noc2c1` [4-Benzyl-1-[3-(6-fluoro-1,2-benzisoxazol-3-yl)propyl]piperidine hydrochloride], for which, in experiment [3], the “Blood Pressure Decrease” value was 71 mm/mercury. The inhibition in vivo at 10 mg/kg in experiment [2] (setting [4]) is 29%. On to `CC1CCN(CCCc2noc3cc(F)ccc23)CC1.Cl` [4-Methyl-1-[3-(6-fluoro-1,2-benzisoxazol-3-yl)propyl]piperidine hydrochloride], for which the “Blood Pressure Decrease” value in experiment [3] is 59 mm/mercury. The ED50 in experiment [2] (setting [6]) was 7.6 mg/kg.

Take `Fc1ccc2c(CCCNN3CCCCC3)noc2c1` [6-Fluoro-3-{3-[N-(1-piperidino)aminopropyl}-1,2-benzisoxazole oxalate]: in experiment [1] (sc, mice, subcutaneous), the ED50 came to 5 mg/kg. The inhibition in vivo at 10 mg/kg in experiment [2] (setting [4]) worked out at 36%. For `Cl.Fc1ccc2c(CCCN3CCC4(CC3)OCCO4)noc2c1` [8-[3-(6-Fluoro-1,2-benzisoxazol-3-yl)propyl]-1,4-dioxa-8-azaspiro[4,5]decane hydrochloride], the ED50 is 1.4 mg/kg in experiment [1] (sc, mice, subcutaneous) and 6.4 mg/kg in experiment [2] (setting [6]). With `N=C(N)NCCN1CCCCCCC1` [guanethidine, reference compound], the “Blood Pressure Decrease” value in experiment [3] is 20 mm/mercury. Take `O=C(CCCN1CCC(O)(c2ccc(Cl)cc2)CC1)c1ccc(F)cc1` [haloperidol, reference compound]: the ED50 in experiment [2] was 0.11 mg/kg. As to `CC(C)=CCN1CCC2(C)c3cc(O)ccc3CC1C2C` (centres unmarked) [pentazocine, reference compound], the ED50 in experiment [1] (sc) is 1.3 mg/kg. Still for that read-out and setting: with `CCC(=O)O[C@](Cc1ccccc1)(c1ccccc1)[C@H](C)CN(C)C` [propoxyphene, reference compound] the figure was 3.9 mg/kg. As for `CSc1ccc2c(c1)N(CCC1CCCCN1C)c1ccccc1S2` (centres unmarked) [thioridazine, reference compound], the ED50 in experiment [2] (setting [6]) was 3.5 mg/kg.

The values are drawn from patent US4591586A, “6-fluoro-3-[3-(1-heterocyclo)propyl]-1,2-benzisoxazoles for treatment of pain, hypertension and psychoses” (Hoechst-Roussel Pharmaceuticals, priority 1984, dated 1986).
